Molecules are shown by their SMILES. Like-named read-outs stand apart in the source and are kept apart here.

The term Kd denotes the equilibrium constant for the complex coming apart. Read a low Kd as higher affinity.

The target in assay [1] is T1, CtBP2 (C-terminal binding protein 2) (Homo sapiens, UniProt P56545).
T1 construct: full-length CtBP2 with strep-tag and HA-tag tandemly fused to the C-terminus (baculovirus)
In words: microscale thermophoresis; supported by DSF (Kd […]). (MST reads how a fluorescent partner responds to local heating, with and without ligand.)

Assay [2] has as its target T1, CtBP2 (C-terminal binding protein 2). The assay is described as above. This is another data set of the same source.

Consider `NC(=O)C1=CN([C@@H]2O[C@H](COP(=O)(O)OP(=O)(O)OC[C@H]3O[C@@H](n4cnc5c(N)ncnc54)[C@H](O)[C@@H]3O)[C@@H](O)[C@H]2O)C=CC1` [NADH], for which the Kd in assay [1] amounted to 19.5 ± 6.61 µM. In turn, `CCCCCCCC/C=C\CCCCCCCC(=O)SCCNC(=O)CCNC(=O)[C@H](O)C(C)(C)COP(=O)(O)OP(=O)(O)OC[C@H]1O[C@@H](n2cnc3c(N)ncnc32)[C@H](O)[C@@H]1OP(=O)(O)O` [oleoyl-CoA] came in with a Kd in assay [2] of 18.8 ± 1.28 µM.
